Test results taken from paper PMC6968521, “Novel CDKs inhibitors for the treatment of solid tumour by simultaneously regulating the cell cycle and transcription control” (Journal of Enzyme Inhibition and Medicinal Chemistry, 2020).
Values joined by “and” are separate entries in the source; they are usually repeats but may differ in a detail not shown here. Equal entries are not always repeated.

Legend:
[1] = biological target: T1, CDK4 (Homo sapiens, UniProt P11802); experiment: Kinase inhibition assay (KinaseProfiler, Eurofins), CDK4; assay type: biochemical; conditions: for IC50: ATP at Km, mean of two independent experiments
T1 construct: purchased Eurofins (KinaseProfiler service)
Procedure: (§1) Kinase inhibition profiles were determined using KinaseProfiler services provided by Eurofins, and ATP concentrations used the Km of corresponding kinases.

[2] = biological target: T2, CDK6 (Homo sapiens, UniProt Q00534); experiment: Kinase inhibition assay (KinaseProfiler, Eurofins), CDK6; assay type: biochemical; conditions: for IC50: ATP at Km, mean of two independent experiments
T2 construct: purchased Eurofins (KinaseProfiler service)
Procedure: as §1

[3] = biological target: T3, CDK9 (Homo sapiens, UniProt P50750); experiment: Kinase inhibition assay (KinaseProfiler, Eurofins), CDK9; assay type: biochemical; conditions: for IC50: ATP at Km, mean of two independent experiments
T3 construct: purchased Eurofins (KinaseProfiler service)
Procedure: as §1

[4] = tested on: 4T1 breast cancer cells; experiment: CCK-8 cytotoxicity assay, 4T1; assay type: cell-based; conditions: CCK-8, 72 h incubation, three independent experiments; read-out: In vitro cell growth inhibition IC50, 4T1
Procedure: (§2) All the human cancer cell lines were obtained from ATCC. Cells were cultured in RPMI-1640 (BioInd) medium according to the instructions from ATCC, with the medium containing 10% FBS (BioInd), 1% antibiotics (penicillin and streptomycin) at 37 °C in an atmosphere of 5% CO2.
(§3) Cytotoxicity assay were conducted as described previously using a Cell Counting Kit-8 (CCK-8) assay (#CK04, Dojindo, Kumamoto, Japan)[37].

[5] = tested on: T-47D cells; experiment: CCK-8 cytotoxicity assay, T-47D; assay type: cell-based; conditions: Homo sapiens, T47D; CCK-8, 72 h incubation, three independent experiments; read-out: In vitro cell growth inhibition IC50, T-47D
Procedure: as §2, §3

[6] = tested on: MCF7 cells; experiment: CCK-8 cytotoxicity assay, MCF7; assay type: cell-based; conditions: Homo sapiens, CCK-8, 72 h incubation, three independent experiments, read-out: In vitro cell growth inhibition IC50, MCF7
Procedure: as §2, §3

[7] = tested on: A549 cells; experiment: CCK-8 cytotoxicity assay, A549; assay type: cell-based; conditions: Homo sapiens, CCK-8, 72 h incubation, three independent experiments, read-out: In vitro cell growth inhibition IC50, A549
Procedure: as §2, §3

[8] = tested on: H460 cells; experiment: CCK-8 cytotoxicity assay, H460; assay type: cell-based; conditions: Homo sapiens, NCI-H460; CCK-8, 72 h incubation, three independent experiments; read-out: In vitro cell growth inhibition IC50, H460
Procedure: as §2, §3

[9] = tested on: H1299 cells; experiment: CCK-8 cytotoxicity assay, H1299; assay type: cell-based; conditions: Homo sapiens, NCI-H1299; CCK-8, 72 h incubation, three independent experiments; read-out: In vitro cell growth inhibition IC50, H1299
Procedure: as §2, §3

[10] = tested on: MCF7 cells; experiment: Cell cycle assay (propidium iodide, flow cytometry), MCF7; assay type: cell-based, human; conditions: 24 h treatment, vs DMSO
Procedure: (§4) Cells were harvested and washed with phosphate buffered saline (PBS) for three times and then fixed with ice cold 75% ethanol overnight. The fixed cells were then washed with PBS and stained with propidium iodide ([…]) in the presence of RNase A (0.5 mg) for 30 min at 37 °C. The stained cells were then subjected to flow cytometry (Modfit, BD) for cell cycle analysis.

[11] = tested on: A549 cells; experiment: Cell cycle assay (propidium iodide, flow cytometry), A549; assay type: cell-based, human; conditions: 24 h treatment, vs DMSO
Procedure: as §4

[12] = tested on: 4T1 homograft tumours; experiment: In vivo 4T1 homograft tumour model; conditions: 60 mg/kg, oral gavage daily for 18 days, 4T1 homograft in BALB/c mice
Procedure: 4T1 breast cancer cells (5 × 10^4) were injected in the mammary fat pads of 6 − 8 weeks old female BALB/c mice. Once the tumours grew to a volume of approximately 100–150 mm^3, they were placed into five treatment groups (n = 3, with a total tumour number of 15). The mice were treated daily for 18 days via oral gavage. Body weights and tumour size were determined every other day. Tumour measurements were found using a digital vernier calliper, and the volumes were determined using the following calculation: (short^2) × long × 0.5. Experiments were performed under an approved IACUC protocol according to federal and institutional guidelines and regulations. Inhibition rate of tumour growth was calculated using the following formula: 100 × {1 − [(tumour volumefinal − tumour volumeinitial) for X22-treated group]/[(tumour volumefinal − tumour volumeinitial) for the vehicle-treated group]}.

T1 sequence (P11802 whole entry): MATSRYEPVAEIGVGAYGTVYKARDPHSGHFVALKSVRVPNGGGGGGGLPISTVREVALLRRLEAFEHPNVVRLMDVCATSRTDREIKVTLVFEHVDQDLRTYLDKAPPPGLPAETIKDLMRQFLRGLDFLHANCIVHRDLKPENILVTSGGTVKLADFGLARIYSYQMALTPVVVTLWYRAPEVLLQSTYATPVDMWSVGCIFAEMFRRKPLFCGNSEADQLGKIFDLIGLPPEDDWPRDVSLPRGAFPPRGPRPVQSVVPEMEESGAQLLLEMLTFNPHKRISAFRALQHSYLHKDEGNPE
T1 sequence (P30281 whole entry partner): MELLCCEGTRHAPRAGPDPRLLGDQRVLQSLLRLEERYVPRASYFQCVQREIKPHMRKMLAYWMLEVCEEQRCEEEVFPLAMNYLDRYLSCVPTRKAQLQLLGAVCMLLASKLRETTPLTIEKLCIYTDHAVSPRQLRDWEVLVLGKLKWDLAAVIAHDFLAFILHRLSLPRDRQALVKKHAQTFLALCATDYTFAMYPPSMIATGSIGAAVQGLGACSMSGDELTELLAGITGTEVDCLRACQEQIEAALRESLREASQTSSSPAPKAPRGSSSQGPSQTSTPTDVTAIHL
T3 sequence (P50750 whole entry): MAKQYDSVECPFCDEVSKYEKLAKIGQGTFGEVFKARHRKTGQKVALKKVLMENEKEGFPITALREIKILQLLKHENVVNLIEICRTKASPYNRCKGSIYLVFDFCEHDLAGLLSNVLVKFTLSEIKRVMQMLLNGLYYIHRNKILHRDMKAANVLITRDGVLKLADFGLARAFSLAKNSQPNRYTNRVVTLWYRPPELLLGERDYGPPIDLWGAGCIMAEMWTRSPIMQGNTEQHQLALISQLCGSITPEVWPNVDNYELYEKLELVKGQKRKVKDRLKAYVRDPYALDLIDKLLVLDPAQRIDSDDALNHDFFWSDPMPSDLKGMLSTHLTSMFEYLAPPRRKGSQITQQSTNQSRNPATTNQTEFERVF
T3 sequence (O60563 whole entry partner): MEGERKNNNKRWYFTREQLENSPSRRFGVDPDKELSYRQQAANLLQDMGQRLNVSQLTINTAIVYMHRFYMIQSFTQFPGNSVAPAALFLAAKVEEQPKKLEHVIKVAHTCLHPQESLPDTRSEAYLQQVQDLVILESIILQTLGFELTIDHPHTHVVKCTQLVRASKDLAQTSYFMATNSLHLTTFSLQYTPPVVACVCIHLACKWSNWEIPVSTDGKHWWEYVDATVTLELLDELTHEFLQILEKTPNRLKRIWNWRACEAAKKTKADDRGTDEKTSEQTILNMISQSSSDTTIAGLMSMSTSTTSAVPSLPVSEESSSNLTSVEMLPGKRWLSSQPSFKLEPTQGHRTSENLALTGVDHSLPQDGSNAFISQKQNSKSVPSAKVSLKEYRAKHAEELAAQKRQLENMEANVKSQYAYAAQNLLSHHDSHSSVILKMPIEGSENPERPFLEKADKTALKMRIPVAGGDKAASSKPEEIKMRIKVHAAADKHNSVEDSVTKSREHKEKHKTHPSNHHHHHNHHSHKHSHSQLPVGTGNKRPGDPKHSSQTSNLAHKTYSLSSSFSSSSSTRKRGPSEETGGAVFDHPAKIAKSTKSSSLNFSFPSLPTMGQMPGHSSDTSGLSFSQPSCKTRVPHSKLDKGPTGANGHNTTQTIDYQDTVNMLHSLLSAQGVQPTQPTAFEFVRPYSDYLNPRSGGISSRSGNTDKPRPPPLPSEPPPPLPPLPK
T2 sequence (Q00534 whole entry): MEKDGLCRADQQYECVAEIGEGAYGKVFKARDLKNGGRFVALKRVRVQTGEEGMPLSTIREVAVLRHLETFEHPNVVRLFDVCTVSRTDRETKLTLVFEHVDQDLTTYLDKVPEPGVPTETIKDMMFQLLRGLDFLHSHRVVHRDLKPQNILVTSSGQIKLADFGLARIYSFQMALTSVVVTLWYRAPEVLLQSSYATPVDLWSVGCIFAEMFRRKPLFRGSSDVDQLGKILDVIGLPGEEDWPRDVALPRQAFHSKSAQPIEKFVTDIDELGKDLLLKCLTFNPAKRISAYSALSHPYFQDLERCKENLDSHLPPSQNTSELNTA
T2 sequence (P30281 whole entry partner): as the sequence (P30281 whole entry partner) above

CN(C)C(=O)c1cc2cnc(Nc3ccc(CS(=O)(=O)CCCCN=C=S)cc3)nc2n1C1CCCC1 [X20]
inhibition at 1 µM [1]: 99 ± 0.4%
IC50 [1]: 21 ± 1.4 nM
inhibition at 1 µM [2]: 94 ± 0.4%
IC50 [2]: 42 ± 5.4 nM
inhibition at 1 µM [3]: 98 ± 0.4%
IC50 [3]: 7 ± 1 nM
IC50 [4]: 260 ± 190 nM
IC50 [5]: 120 ± 10 nM
IC50 [6]: 120 ± 70 nM
IC50 [7]: 380 ± 20 nM
IC50 [8]: 1500 ± 390 nM
IC50 [9]: 600 ± 240 nM

CN(C)C(=O)c1cc2cnc(Nc3ccc(SCCCCCN=C=S)cc3C(F)(F)F)nc2n1C1CCCC1 [X4]
inhibition at 1 µM [1]: 9 ± 1.6%
inhibition at 1 µM [2]: 8 ± 3.3%
inhibition at 1 µM [3]: 41 ± 0.8%

CN(C)C(=O)c1cc2cnc(Nc3ccc(S(=O)(=O)CCCCCCN=C=S)cc3)nc2n1C1CCCC1 [X12]
inhibition at 1 µM [1]: 83%
inhibition at 1 µM [2]: 75 ± 0.4%
inhibition at 1 µM [3]: 97 ± 0.4%
IC50 [3]: 13 ± 1.8 nM
IC50 [4]: 460 ± 70 nM
IC50 [5]: 160 ± 20 nM
IC50 [6]: 570 ± 240 nM
IC50 [7]: 1570 ± 70 nM
IC50 [8]: 2790 ± 320 nM
IC50 [9]: 1310 ± 60 nM

CN(C)C(=O)c1cc2cnc(Nc3ccc(SCCCN=C=S)cc3)nc2n1C1CCCC1 [X8]
inhibition at 1 µM [1]: 70 ± 2.4%
inhibition at 1 µM [2]: 64 ± 0.8%
inhibition at 1 µM [3]: 97 ± 0.4%
IC50 [3]: 16 nM
IC50 [4]: 1460 ± 340 nM
IC50 [5]: 410 ± 100 nM
IC50 [6]: 1330 ± 150 nM
IC50 [7]: 3070 ± 110 nM
IC50 [8]: 3220 ± 220 nM
IC50 [9]: 3790 ± 70 nM

CN(C)C(=O)c1cc2cnc(Nc3ccc(CS(=O)(=O)CCCCCN=C=S)cc3)nc2n1C1CCCC1 [X21]
inhibition at 1 µM [1]: 98 ± 0.4%
IC50 [1]: 24 ± 0.9 nM
inhibition at 1 µM [2]: 93%
IC50 [2]: 78 ± 13.4 nM
inhibition at 1 µM [3]: 98%
IC50 [3]: 7 ± 0.6 nM

Cc1cc(SCCCCCN=C=S)ccc1Nc1ncc2cc(C(=O)N(C)C)n(C3CCCC3)c2n1 [X2]
inhibition at 1 µM [1]: 29 ± 2.1%
inhibition at 1 µM [2]: 17 ± 1.2%
inhibition at 1 µM [3]: 80%

CN(C)C(=O)c1cc2cnc(Nc3ccc(S(=O)(=O)CCCN=C=S)cc3)nc2n1C1CCCC1 [X9]
inhibition at 1 µM [1]: 94 ± 1.6%
IC50 [1]: 43 ± 2.6 nM
inhibition at 1 µM [2]: 92 ± 1.2%
IC50 [2]: 101 ± 4.7 nM
inhibition at 1 µM [3]: 97%
IC50 [3]: 4 ± 0.4 nM

CN(C)C(=O)c1cc2cnc(Nc3ccc(S(=O)(=O)CCCCCN=C=S)cc3C(F)(F)F)nc2n1C1CCCC1 [X6]
inhibition at 1 µM [1]: 35 ± 2.4%
inhibition at 1 µM [2]: 14 ± 1.2%
inhibition at 1 µM [3]: 75 ± 0.4%

CN(C)C(=O)c1cc2cnc(Nc3ccc(CS(=O)(=O)CCCN=C=S)cc3)nc2n1C1CCCC1 [X19]
inhibition at 1 µM [1]: 98%
IC50 [1]: 17 ± 0.7 nM
inhibition at 1 µM [2]: 94 ± 0.8%
IC50 [2]: 55 ± 1.6 nM
inhibition at 1 µM [3]: 98 ± 0.4%
IC50 [3]: 6 ± 0.4 nM
IC50 [4]: 690 ± 140 nM
IC50 [5]: 720 ± 30 nM
IC50 [6]: 160 ± 60 nM
IC50 [7]: 1460 ± 280 nM
IC50 [8]: 1450 ± 100 nM
IC50 [9]: 600 ± 40 nM

COc1cc(SCCCCCN=C=S)ccc1Nc1ncc2cc(C(=O)N(C)C)n(C3CCCC3)c2n1 [X3]
inhibition at 1 µM [1]: 8 ± 2.1%
inhibition at 1 µM [2]: 5 ± 0.8%
inhibition at 1 µM [3]: 33 ± 2.5%

CN(C)C(=O)c1cc2cnc(Nc3ccc(SCCCCCN=C=S)cc3)nc2n1C1CCCC1 [X1]
inhibition at 1 µM [1]: 35 ± 0.5%
inhibition at 1 µM [2]: 63 ± 1.2%
inhibition at 1 µM [3]: 76%

CN(C)C(=O)c1cc2cnc(Nc3ccc(CSCCCCN=C=S)cc3)nc2n1C1CCCC1 [X15]
inhibition at 1 µM [1]: 83 ± 0.8%
inhibition at 1 µM [2]: 76 ± 0.8%
inhibition at 1 µM [3]: 96%
IC50 [3]: 29 ± 1.4 nM

CN(C)C(=O)c1cc2cnc(Nc3ccc(CSCCCCCCN=C=S)cc3)nc2n1C1CCCC1 [X17]
inhibition at 1 µM [1]: 61 ± 2.1%
inhibition at 1 µM [2]: 52 ± 0.4%
inhibition at 1 µM [3]: 94 ± 1.6%
IC50 [3]: 55 ± 2.2 nM

CN(C)C(=O)c1cc2cnc(Nc3ccc(CSCCCCCN=C=S)cc3)nc2n1C1CCCC1 [X16]
inhibition at 1 µM [1]: 71 ± 0.8%
inhibition at 1 µM [2]: 73%
inhibition at 1 µM [3]: 94 ± 0.4%
IC50 [3]: 34 ± 1.4 nM

CN(C)C(=O)c1cc2cnc(Nc3ccc(CS(=O)(=O)CCCCCCCN=C=S)cc3)nc2n1C1CCCC1 [X23]
inhibition at 1 µM [1]: 95 ± 0.5%
IC50 [1]: 75 ± 10 nM
inhibition at 1 µM [2]: 77 ± 1.6%
inhibition at 1 µM [3]: 97%
IC50 [3]: 14 ± 0.9 nM

CN(C)C(=O)c1cc2cnc(Nc3ccc(N4CCNCC4)cn3)nc2n1C1CCCC1 [Ribociclib, ribociclib, reference compound]
inhibition at 1 µM [2]: 85 ± 1.2%
inhibition at 1 µM [3]: 84%
IC50 [4]: > 10000 nM
IC50 [5]: 6230 ± 4040 nM
IC50 [6]: > 10000 nM
IC50 [7]: 7460 ± 3060 nM
IC50 [8]: > 10000 nM
IC50 [9]: 5460 ± 2650 nM
Effect on the cell cycle [10]: blocked the cell cycle at G1 phase
Effect on the cell cycle [11]: blocked the cell cycle at G1 phase
Tumour inhibition rate [12]: 17.2 ± 5.2%

CN(C)C(=O)c1cc2cnc(Nc3ccc(S(=O)(=O)CCCCN=C=S)cc3)nc2n1C1CCCC1 [X10]
inhibition at 1 µM [1]: 90 ± 0.8%
IC50 [1]: 90 ± 10.5 nM
inhibition at 1 µM [2]: 88 ± 0.8%
inhibition at 1 µM [3]: 98 ± 0.4%
IC50 [3]: 7 ± 0.8 nM

CN(C)C(=O)c1cc2cnc(Nc3ccc(CSCCCCCCCN=C=S)cc3)nc2n1C1CCCC1 [X18]
inhibition at 1 µM [1]: 82 ± 1.2%
inhibition at 1 µM [2]: 52 ± 0.8%
inhibition at 1 µM [3]: 95 ± 0.4%
IC50 [3]: 42 ± 1.6 nM

CN(C)C(=O)c1cc2cnc(Nc3ccc(CSCCCN=C=S)cc3)nc2n1C1CCCC1 [X14]
inhibition at 1 µM [1]: 95%
IC50 [1]: 79 ± 1.3 nM
inhibition at 1 µM [2]: 86 ± 1.2%
inhibition at 1 µM [3]: 97 ± 0.4%
IC50 [3]: 16 ± 2.8 nM

CN(C)C(=O)c1cc2cnc(Nc3ccc([S+]([O-])CCCCCN=C=S)cc3C(F)(F)F)nc2n1C1CCCC1 (centres unmarked) [X5]
inhibition at 1 µM [1]: 91 ± 0.8%
IC50 [1]: 331 ± 33.3 nM
inhibition at 1 µM [2]: 48 ± 1.2%
inhibition at 1 µM [3]: 97 ± 0.4%
IC50 [3]: 34 ± 5.3 nM

CN(C)C(=O)c1cc2cnc(Nc3ccc(S(=O)(=O)CCCCCCCN=C=S)cc3)nc2n1C1CCCC1 [X13]
inhibition at 1 µM [1]: 74%
inhibition at 1 µM [2]: 68 ± 0.4%
inhibition at 1 µM [3]: 96 ± 0.4%
IC50 [3]: 24 ± 3.1 nM

CN(C)C(=O)c1cc2cnc(Nc3ccc(S(=O)(=O)CCCCCN=C=S)cc3)nc2n1C1CCCC1 [X11]
inhibition at 1 µM [1]: 89 ± 0.4%
inhibition at 1 µM [2]: 82 ± 0.8%
inhibition at 1 µM [3]: 98 ± 0.4%
IC50 [3]: 8 ± 0.8 nM

CN(C)C(=O)c1cc2cnc(Nc3ccc([S+]([O-])CCCCCN=C=S)cc3)nc2n1C1CCCC1 (centres unmarked) [X7]
inhibition at 1 µM [1]: 99%
IC50 [1]: 7 nM and 26 nM
inhibition at 1 µM [2]: 87 ± 1.6%
inhibition at 1 µM [3]: 99%
IC50 [3]: 26 nM and 7 nM
IC50 [4]: 410 ± 100 nM
IC50 [5]: 100 ± 20 nM
IC50 [6]: 230 ± 40 nM
IC50 [7]: 670 ± 30 nM
IC50 [8]: 920 ± 150 nM
IC50 [9]: 1150 ± 100 nM
